Results taken from patent publication US20260234161A1, “RIFABUTIN ANALOGS FOR THE TREATMENT OF BACTERIAL DISEASES” (BIOVERSYS AG, priority 2023, published 2026).
≈ marks a conversion by molar mass, not a printed value.

Experiments:
Type in all cases: cell-based
[1] = test system: S. aureus (UAMS-1625 strain); assay: MIC by broth microdilution, S. aureus; conditions: Staphylococcus aureus, 20 h, read-out: MIC S. aureus
Experimental: (§1) MIC values were determined by broth microdilution method according to the CLSI guidelines with the following exceptions: MIC against A. baumannii was performed in RPMI medium supplemented with 10% FCS and MIC against M. abscessus was performed in Middlebrook 7H9 broth supplemented with Middlebrook ADC growth supplement (10%; see column “M. abscessus 7H9”). MIC forM abscessus was determined a second time in standard cation adjusted Mueller Hinton broth without growth supplement (see colum “M. abscessus MH”). All other MIC were performed in standard cation adjusted Mueller Hinton broth, supplemented with Middlebrook ADC growth supplement (5%) for the slow growing mycobacteria (M. xenopi, M. kansasii and M. avium).
(§2) The following procedure applies to all species tested, except forM xenopi. From a fresh culture plate (from overnight to several days depending on the bacteria), cells were resuspended in 0.9% (w/v) saline solution and bacterial inoculum was prepared in the respective testing medium with 5×10^5 CFU/mL. For M. xenopi, the inoculum was prepared from a fresh liquid culture (7H9+ADC). The appropriate volumes of a 10 mg/mL compound solution were directly dispensed in the 96-well assay plate using a digital dispenser to create two-fold dilution series from 32 to 0.002 μg/mL final concentration for A. baumannii and S. aureus; from 16 to 0.016 μg/mL for M. abscessus and M. avium; and from 1 to 6×10^−5 μg/mL for M. kansasii and M. xenopi. 100 μL of bacterial suspension was finally added to the compounds. Plates were covered and incubated without shaking at 35° C. for 20 hours for A. baumanii and S. aureus; at 30° C. for 4 days for M. abscessus; and at 37° C. for 7 days (at least) for M. kansasii (covered with aluminum foil to avoid light exposure), M. avium and M. xenopi. Every experiment contained an antibiotic as quality control. MIC was determined visually as the lowest concentration of a compound that prevents visible growth of the bacteria.
(§3) The in vitro activity of compounds described herein was determined against S. aureus (UAMS-1625 strain), A. baumannii (HUMC1 strain), M. abscessus (ATCC 19977), M. kansasii (ATCC 12478), M. avium (ATCC 25291), and M. xenopi (ATCC 19250).

[2] = test system: A. baumannii (HUMC1 strain); assay: MIC by broth microdilution, A. baumannii (RPMI + 10% FCS); conditions: Acinetobacter baumannii; HUMC1 strain; RPMI medium + 10% FCS; 35° C., 20 hours; read-out: MIC A. baumannii
Experimental: as §1, §2, §3

[3] = test system: M. abscessus (ATCC 19977); assay: MIC by broth microdilution, M. abscessus in Middlebrook 7H9 broth + ADC; conditions: Mycobacteroides abscessus
Experimental: as §1, §2, §3

[4] = test system: M. abscessus (ATCC 19977); assay: MIC by broth microdilution, M. abscessus in cation adjusted Mueller Hinton broth; conditions: Mycobacteroides abscessus
Experimental: as §1, §2, §3

[5] = test system: M. kansasii (ATCC 12478); assay: MIC by broth microdilution, M. kansasii; conditions: Mycobacterium kansasii, ATCC12478, 168 h, cation adjusted Mueller Hinton broth + ADC (5%), 37° C., 7 days (at least)
Experimental: as §1, §2, §3

[6] = test system: M. xenopi (ATCC 19250); assay: MIC by broth microdilution, M. xenopi; conditions: Mycobacterium xenopi, ATCC19250, 168 h, cation adjusted Mueller Hinton broth + ADC (5%), 37° C., 7 days (at least)
Experimental: as §1, §2, §3

[7] = test system: M. avium (ATCC 25291); assay: MIC by broth microdilution, M. avium; conditions: Mycobacterium avium, ATCC25291, 168 h, cation adjusted Mueller Hinton broth + ADC (5%), 37° C., 7 days (at least)
Experimental: as §1, §2, §3

[8] = ATCC19977, 96 h, ATCC 19977, Middlebrook 7H9 broth + ADC growth supplement (10%), 30° C., 4 days, read-out: MIC M. abscessus 7H9
[9] = ATCC19977, 96 h, ATCC 19977, cation adjusted Mueller Hinton broth without growth supplement, 30° C., 4 days, read-out: MIC M. abscessus MH

SMILES | MIC [1] | MIC [2] | MIC [3, 8] | MIC [4, 9] | MIC [5] | MIC [6] | MIC [7] | MIC ([3]; ATCC19977, 7H9 broth, read-out: MIC value against M. abscessus in 7H9 broth) | MIC ([4]; ATCC19977, Mueller Hinton broth, read-out: MIC value against M. abscessus in Mueller Hinton broth)
CO[C@H]1/C=C/O[C@@]2(C)Oc3c(C)c(O)c4c(c3C2=O)C2=NC3(CCN(CC(C)C)CC3)NC2=C(NC(=O)/C(C)=C\C=C\[C@H](C)[C@H](O)[C@@H](C)[C@@H](O)[C@@H](C)[C@H](OC(=O)N2CCN(CC3CCCCC3)CC2)[C@@H]1C)C4=O [Compound 9] | 0.5 µg/mL (≈ 0.493 µM) | 0.5 µg/mL | 0.06 µg/mL | 0.125 µg/mL (≈ 0.123 µM) | 0.2 ng/mL | 16 ng/mL | 0.125 µg/mL |  | 
CO[C@H]1/C=C/O[C@@]2(C)Oc3c(C)c(O)c4c(c3C2=O)C2=NC3(CCN(CC(C)C)CC3)NC2=C(NC(=O)/C(C)=C\C=C\[C@H](C)[C@H](O)[C@@H](C)[C@@H](O)[C@@H](C)[C@H](OC(=O)N2CCC(c3ccncc3)CC2)[C@@H]1C)C4=O [Compound 2] | 0.125 µg/mL (≈ 0.126 µM) | 0.016 µg/mL | 0.125 µg/mL | 0.25 µg/mL (≈ 0.252 µM) | 0.5 ng/mL | 2 ng/mL | 0.06 µg/mL |  | 
CCCCN1CCN(C(=O)O[C@H]2[C@H](C)[C@H](O)[C@H](C)[C@@H](O)[C@@H](C)/C=C/C=C(/C)C(=O)NC3=C4NC5(CCN(CC(C)C)CC5)N=C4c4c(c(O)c(C)c5c4C(=O)[C@@](C)(O/C=C/[C@H](OC)[C@H]2C)O5)C3=O)CC1 [Compound 50] | 0.125 µg/mL (≈ 0.128 µM) | 0.03 µg/mL |  | 0.25 µg/mL (≈ 0.257 µM) | 8 ng/mL | 8 ng/mL | 0.125 µg/mL |  | 
CCCCN1CCC(NC(=O)O[C@H]2[C@H](C)[C@H](O)[C@H](C)[C@@H](O)[C@@H](C)/C=C/C=C(/C)C(=O)NC3=C4NC5(CCN(CC(C)C)CC5)N=C4c4c(c(O)c(C)c5c4C(=O)[C@@](C)(O/C=C/[C@H](OC)[C@H]2C)O5)C3=O)CC1 [Compound 30] | 0.06 µg/mL (≈ 0.0608 µM) | ≤ 0.016 µg/mL |  | 0.5 µg/mL (≈ 0.506 µM) | 16 ng/mL | 60 ng/mL | 0.125 µg/mL |  | 
CO[C@H]1/C=C/O[C@@]2(C)Oc3c(C)c(O)c4c(c3C2=O)C2=NC3(CCN(CC(C)C)CC3)NC2=C(NC(=O)/C(C)=C\C=C\[C@H](C)[C@H](O)[C@@H](C)[C@@H](O)[C@@H](C)[C@H](OC(=O)N2CCN(c3ccccc3)CC2)[C@@H]1C)C4=O [Compound 7] | 0.5 µg/mL (≈ 0.503 µM) | 0.125 µg/mL | 0.125 µg/mL | 0.5 µg/mL (≈ 0.503 µM) | 1 ng/mL | 8 ng/mL | 0.25 µg/mL |  | 
CO[C@H]1/C=C/O[C@@]2(C)Oc3c(C)c(O)c4c(c3C2=O)C2=NC3(CCN(CC(C)C)CC3)NC2=C(NC(=O)/C(C)=C\C=C\[C@H](C)[C@H](O)[C@@H](C)[C@@H](O)[C@@H](C)[C@H](OC(=O)N2CCC3(CCN(CC5CCCCC5)CC3)CC2)[C@@H]1C)C4=O [Compound 72] | 0.25 µg/mL (≈ 0.231 µM) | 0.06 µg/mL |  | 0.25 µg/mL (≈ 0.231 µM) | 0.4 ng/mL | 8 ng/mL | 0.03 µg/mL |  | 
CO[C@H]1/C=C/O[C@@]2(C)Oc3c(C)c(O)c4c(c3C2=O)C2=NC3(CCN(CC(C)C)CC3)NC2=C(NC(=O)/C(C)=C\C=C\[C@H](C)[C@H](O)[C@@H](C)[C@@H](O)[C@@H](C)[C@H](OC(=O)N2CCC3(CCN(C)CC3)CC2)[C@@H]1C)C4=O [Compound 21] | 0.06 µg/mL (≈ 0.06 µM) | ≤ 0.016 µg/mL |  | 2 µg/mL (≈ 2 µM) | 125 ng/mL | 250 ng/mL | 0.5 µg/mL |  | 
CO[C@H]1/C=C/O[C@@]2(C)Oc3c(C)c(O)c4c(c3C2=O)C2=NC3(CCN(CC(C)C)CC3)NC2=C(NC(=O)/C(C)=C\C=C\[C@H](C)[C@H](O)[C@@H](C)[C@@H](O)[C@@H](C)[C@H](OC(=O)N2CCN(C3CCCCC3)CC2)[C@@H]1C)C4=O [Compound 10] | 0.25 µg/mL (≈ 0.25 µM) | 0.06 µg/mL | 0.06 µg/mL | 0.06 µg/mL (≈ 0.06 µM) | 0.2 ng/mL | 2 ng/mL | 0.06 µg/mL |  | 
CO[C@H]1/C=C/O[C@@]2(C)Oc3c(C)c(O)c4c(c3C2=O)C2=NC3(CCN(CC(C)C)CC3)NC2=C(NC(=O)/C(C)=C\C=C\[C@H](C)[C@H](O)[C@@H](C)[C@@H](O)[C@@H](C)[C@H](OC(=O)N2CCN(CC3CC3)CC2)[C@@H]1C)C4=O [Compound 56] | 0.125 µg/mL (≈ 0.129 µM) | ≤ 0.016 µg/mL |  | 0.25 µg/mL (≈ 0.257 µM) | 4 ng/mL | 8 ng/mL | 0.06 µg/mL |  | 
CO[C@H]1/C=C/O[C@@]2(C)Oc3c(C)c(O)c4c(c3C2=O)C2=NC3(CCN(CC(C)C)CC3)NC2=C(NC(=O)/C(C)=C\C=C\[C@H](C)[C@H](O)[C@@H](C)[C@@H](O)[C@@H](C)[C@H](OC(=O)N2CCCN(c3ccc(F)cc3)CC2)[C@@H]1C)C4=O [Compound 16] | 0.25 µg/mL (≈ 0.244 µM) | 0.03 µg/mL | 1 µg/mL | 2 µg/mL (≈ 1.95 µM) |  |  |  |  | 
CO[C@H]1/C=C/O[C@@]2(C)Oc3c(C)c(O)c4c(c3C2=O)C2=NC3(CCN(CC(C)C)CC3)NC2=C(NC(=O)/C(C)=C\C=C\[C@H](C)[C@H](O)[C@@H](C)[C@@H](O)[C@@H](C)[C@H](OC(=O)N2C[C@H]3CN(CC5CCCCC5)C[C@H]3C2)[C@@H]1C)C4=O [Compound 67] | 1 µg/mL (≈ 0.962 µM) | 0.06 µg/mL |  | 0.125 µg/mL (≈ 0.12 µM) | 3 ng/mL | 4 ng/mL | 0.016 µg/mL |  | 
CO[C@H]1/C=C/O[C@@]2(C)Oc3c(C)c(O)c4c(c3C2=O)C2=NC3(CCN(CC(C)C)CC3)NC2=C(NC(=O)/C(C)=C\C=C\[C@H](C)[C@H](O)[C@@H](C)[C@@H](O)[C@@H](C)[C@H](OC(=O)N2CCN(CCN3CCOCC3)CC2)[C@@H]1C)C4=O [Compound 13] | 0.06 µg/mL (≈ 0.0582 µM) | ≤ 0.002 µg/mL | 0.5 µg/mL | 0.5 µg/mL (≈ 0.485 µM) |  |  |  |  | 
CO[C@H]1/C=C/O[C@@]2(C)Oc3c(C)c(O)c4c(c3C2=O)C2=NC3(CCN(CC(C)C)CC3)NC2=C(NC(=O)/C(C)=C\C=C\[C@H](C)[C@H](O)[C@@H](C)[C@@H](O)[C@@H](C)[C@H](OC(=O)NC2CCN(C3CCCCC3)CC2)[C@@H]1C)C4=O [Compound 77] | 0.06 µg/mL (≈ 0.0592 µM) | ≤ 0.016 µg/mL |  | 1 µg/mL (≈ 0.987 µM) | 30 ng/mL | 60 ng/mL | 0.25 µg/mL |  | 
CO[C@H]1/C=C/O[C@@]2(C)Oc3c(C)c(O)c4c(c3C2=O)C2=NC3(CCN(CC(C)C)CC3)NC2=C(NC(=O)/C(C)=C\C=C\[C@H](C)[C@H](O)[C@@H](C)[C@@H](O)[C@@H](C)[C@H](OC(=O)N2CCN(C)CC2)[C@@H]1C)C4=O [Compound 6] | 0.06 µg/mL (≈ 0.0644 µM) | 0.06 µg/mL | 1 µg/mL | 4 µg/mL (≈ 4.3 µM) |  |  |  |  | 
CO[C@H]1/C=C/O[C@@]2(C)Oc3c(C)c(O)c4c(c3C2=O)C2=NC3(CCN(CC(C)C)CC3)NC2=C(NC(=O)/C(C)=C\C=C\[C@H](C)[C@H](O)[C@@H](C)[C@@H](O)[C@@H](C)[C@H](OC(=O)N2CCC(NC(C)C)CC2)[C@@H]1C)C4=O [Compound 63] | 0.06 µg/mL (≈ 0.0617 µM) | ≤ 0.016 µg/mL |  | 2 µg/mL (≈ 2.06 µM) | 125 ng/mL | 250 ng/mL | 0.5 µg/mL |  | 
CO[C@H]1/C=C/O[C@@]2(C)Oc3c(C)c(O)c4c(c3C2=O)C2=NC3(CCN(CC(C)C)CC3)NC2=C(NC(=O)/C(C)=C\C=C\[C@H](C)[C@H](O)[C@@H](C)[C@@H](O)[C@@H](C)[C@H](OC(=O)N2CCN(C3CCN(C)CC3)CC2)[C@@H]1C)C4=O [Compound 11] | 0.125 µg/mL (≈ 0.123 µM) | ≤ 0.002 µg/mL | 0.5 µg/mL | 4 µg/mL (≈ 3.94 µM) |  |  |  |  | 
CO[C@H]1/C=C/O[C@@]2(C)Oc3c(C)c(O)c4c(c3C2=O)C2=NC3(CCN(CC(C)C)CC3)NC2=C(NC(=O)/C(C)=C\C=C\[C@H](C)[C@H](O)[C@@H](C)[C@@H](O)[C@@H](C)[C@H](OC(C)=O)[C@@H]1C)C4=O [Rifabutin, rifabutin] | 0.016 µg/mL (≈ 0.0189 µM) | ≤ 0.002 µg/mL | 8 µg/mL | 16 µg/mL (≈ 18.9 µM) |  |  |  | 8 µg/mL | 16 µg/mL (≈ 18.9 µM)
